Reference: patent publication US12320799B2, “Methods of measuring signaling pathway activity for selection of therapeutic agents” (Celcuity Inc., priority 2017, dated 2025)
Read-outs that look alike come from different tables or passages of the source. One block for each substance: values may come before it.

What was measured:
EGF pathway = assay: Pathway ultrasensitivity test (EC90/EC10 of activator agent), impedance biosensor; format: cell-based, human; settings: for EC90: read-out: EC90 Concentration
Description: (§1) Biosensor and transducer: A 96-well impendence E-Plate (ACEA, San Diego, CA) was placed onto an xCELLigence RTCA MP Station impendence biosensor (ACEA, San Diego, CA). The biosensor measured simultaneously the impedance of every well. The change in impedance for a particular well is proportional to the number of cells and type of attachment the cells have with the impedance microplate. Changes in impedance indicate a response to activation of these small cell populations. Coatings: The 96-E-Plate were wells were coated with fibronectin and or collagen. Collagen is purchased from Advanced BioMatrix (Carlsbad, CA) and fibronectin from Sigma-Aldrich (St. Louis, MO). Tissue and cell samples: Five different samples of human cells from breast tumors (R131, R39, R36, R20, R82) and two different samples of human cells from non-small cell lung cancer (NSCLC) tumors were studied (C15 and C23). Any biomarkers that are used to guide selection of targeted therapy are listed in Table 20 for each patient if they were present. Signaling Pathways activator: NRG1, a HER3 agonist, was used to stimulate the HER3 pathway in each of the five breast cancer cell samples. The EC90 and EC10 concentrations of the signaling pathway activator agent were also derived for each breast cancer sample.
(§2) In each of the two NSCLC cell samples, four different activating agents were used to stimulate either the EGF or HER3 pathways. The EC90 and EC10 concentrations of the signaling pathway activator agent were also derived for each NSCLC cell sample.
(§3) Other Reagents: Standard media antibiotics (e.g. penicillin, streptomycin) and other buffers were purchased and used as delivered from ATCC (Manassas, VA, USA) or Life Technologies (Grand Island, NY). Procedure: For each test of a patient cell sample with two different concentrations of signaling pathway activator, six wells were seeded with approximately 15,000 cells in 120 uL culture media. […] The impedance recording of attachment and adhesion change was performed at 37° C., 5% CO2. Data was recorded on a continuous basis throughout the test, where the data presented is from the initial baseline level of cell attachment compared to the subsequent effects following the additions of two concentrations of the signaling pathway activator agent on the 12 different patient samples. Results:
(§4) For each patient cell sample tested, output values were calculated for the signaling pathway activity measured after addition of the two different concentrations of the signaling pathway activator agent. To determine the sensitivity of the signaling pathway to the signaling pathway activator agent, the sensitivity was calculated using the two output values. When the ratio of the EC90 to EC10 is less than 81, the pathway is considered to be ultra-sensitive; otherwise the pathway is considered to be normally sensitive.

HER3 pathway = assay: as above; format: cell-based, human; settings: for EC90: read-out: EC90 Concentration
Description: as §1, §2, §3, §4

[1] = NSCLC cell sample C15, EGF pathway
[2] = NSCLC cell sample C23, EGF pathway
[3] = NSCLC cell sample C23, HER3 pathway

Substance: TGF alpha
Pathway Sensitivity Status (normal or ultra) (EGF pathway; [1]): Ultra (When the ratio of the EC90 to EC10 is less than 81, the pathway is considered to be ultra-sensitive)
Sensitivity Calculation Result (ratio of the EC90 to EC10 of activating agent) (EGF pathway; [1]): 44.15
Pathway Sensitivity Status (normal or ultra) (EGF pathway; [2]): Ultra (When the ratio of the EC90 to EC10 is less than 81, the pathway is considered to be ultra-sensitive)
Sensitivity Calculation Result (ratio of the EC90 to EC10 of activating agent) (EGF pathway; [2]): 21.25
EC10 Concentration (EGF pathway; NSCLC tumor cell sample C15): 0.0082 nM
EC90 (EGF pathway; NSCLC tumor cell sample C15): 0.362 nM
EC10 Concentration (EGF pathway; NSCLC tumor cell sample C23): 0.0088 nM
EC90 (EGF pathway; NSCLC tumor cell sample C23): 0.187 nM

Substance: NRG1
Pathway Sensitivity Status (normal or ultra) (HER3 pathway; [3]): Ultra (When the ratio of the EC90 to EC10 is less than 81, the pathway is considered to be ultra-sensitive)
Sensitivity Calculation Result (ratio of the EC90 to EC10 of activating agent) (HER3 pathway; [3]): 11.19
EC10 Concentration (HER3 pathway; NSCLC tumor cell sample C23): 0.399 nM
EC90 (HER3 pathway; NSCLC tumor cell sample C23): 4.46 nM
EC10 Concentration (HER3 pathway; breast tumor cell sample R20): 0.236 nM
Pathway Sensitivity Status (normal or ultra) (HER3 pathway; breast tumor cell sample R20): Ultra (When the ratio of the EC90 to EC10 is less than 81, the pathway is considered to be ultra-sensitive)
Sensitivity Calculation Result (EC90/EC10 ratio) (HER3 pathway; breast tumor cell sample R20): 18.44
EC90 (HER3 pathway; breast tumor cell sample R20): 2.14 nM
EC10 Concentration (HER3 pathway; breast tumor cell sample R36): 0.215 nM
Pathway Sensitivity Status (normal or ultra) (HER3 pathway; breast tumor cell sample R36): Ultra (When the ratio of the EC90 to EC10 is less than 81, the pathway is considered to be ultra-sensitive)
Sensitivity Calculation Result (EC90/EC10 ratio) (HER3 pathway; breast tumor cell sample R36): 27.61
EC90 (HER3 pathway; breast tumor cell sample R36): 1.96 nM
EC10 Concentration (HER3 pathway; breast tumor cell sample R39): 0.173 nM
Pathway Sensitivity Status (normal or ultra) (HER3 pathway; breast tumor cell sample R39): Ultra (When the ratio of the EC90 to EC10 is less than 81, the pathway is considered to be ultra-sensitive)
Sensitivity Calculation Result (EC90/EC10 ratio) (HER3 pathway; breast tumor cell sample R39): 45.96
EC90 (HER3 pathway; breast tumor cell sample R39): 1.6 nM
EC10 Concentration (HER3 pathway; breast tumor cell sample R82): 0.193 nM
Pathway Sensitivity Status (normal or ultra) (HER3 pathway; breast tumor cell sample R82): Normal (otherwise the pathway is considered to be normally sensitive)
Sensitivity Calculation Result (EC90/EC10 ratio) (HER3 pathway; breast tumor cell sample R82): 95.1
EC90 (HER3 pathway; breast tumor cell sample R82): 1.79 nM
EC10 Concentration (HER3 pathway; breast tumor cell sample R131): 0.133 nM
Pathway Sensitivity Status (normal or ultra) (HER3 pathway; breast tumor cell sample R131): Ultra (When the ratio of the EC90 to EC10 is less than 81, the pathway is considered to be ultra-sensitive)
Sensitivity Calculation Result (EC90/EC10 ratio) (HER3 pathway; breast tumor cell sample R131): 38.32
EC90 (HER3 pathway; breast tumor cell sample R131): 1.23 nM

Substance: Betacellulin
Pathway Sensitivity Status (normal or ultra) (EGF pathway; [1]): Ultra (When the ratio of the EC90 to EC10 is less than 81, the pathway is considered to be ultra-sensitive)
Sensitivity Calculation Result (ratio of the EC90 to EC10 of activating agent) (EGF pathway; [1]): 41.67
Pathway Sensitivity Status (normal or ultra) (EGF pathway; [2]): Ultra (When the ratio of the EC90 to EC10 is less than 81, the pathway is considered to be ultra-sensitive)
Sensitivity Calculation Result (ratio of the EC90 to EC10 of activating agent) (EGF pathway; [2]): 29.39
EC10 Concentration (EGF pathway; NSCLC tumor cell sample C15): 0.0024 nM
EC90 (EGF pathway; NSCLC tumor cell sample C15): 0.1 nM
EC10 Concentration (EGF pathway; NSCLC tumor cell sample C23): 0.0066 nM
EC90 (EGF pathway; NSCLC tumor cell sample C23): 0.194 nM

More lines, main results first:

Sensitivity Calculation Result (ratio of the EC90 to EC10 of activating agent) (EGF pathway; [1]): 63.75
Sensitivity Calculation Result (ratio of the EC90 to EC10 of activating agent) (EGF pathway; [2]): 66.67
EC90 (EGF pathway; NSCLC tumor cell sample C15): 0.102 nM
EC90 (EGF pathway; NSCLC tumor cell sample C23): 0.2 nM
Substance: HB-EGF
Pathway Sensitivity Status (normal or ultra) (EGF pathway; [1]): Ultra (When the ratio of the EC90 to EC10 is less than 81, the pathway is considered to be ultra-sensitive)
Pathway Sensitivity Status (normal or ultra) (EGF pathway; [2]): Ultra (When the ratio of the EC90 to EC10 is less than 81, the pathway is considered to be ultra-sensitive)
EC10 Concentration (EGF pathway; NSCLC tumor cell sample C15): 0.0016 nM
EC10 Concentration (EGF pathway; NSCLC tumor cell sample C23): 0.003 nM

Sensitivity Calculation Result (ratio of the EC90 to EC10 of activating agent) (EGF pathway; [1]): 65.65
EC90 (EGF pathway; NSCLC tumor cell sample C15): 3 nM
Substance: Amphiregulin
Pathway Sensitivity Status (normal or ultra) (EGF pathway; [1]): Ultra (When the ratio of the EC90 to EC10 is less than 81, the pathway is considered to be ultra-sensitive)
EC10 Concentration (EGF pathway; NSCLC tumor cell sample C15): 0.0457 nM
